This passage reports IC50 and EC50 results from ChEMBL document CHEMBL5385851, “Natural quinazolinones: From a treasure house to promising anticancer leads” (Eur J Med Chem, 2023).

Converted amounts (≈) assume the structure as drawn. A value given as a limit tells only on which side of the number the result lay.

Assay [1] deals with Indoleamine 2,3-dioxygenase 1 (Homo sapiens, UniProt P14902). As to the kind of experiment: Inhibition of IDO1 in human HeLa cells. Format: cell-based.
For assay [2], the target named is Tryptophan 2,3-dioxygenase (Homo sapiens, UniProt P48775). As to the kind of experiment: Inhibition of TDO (unknown origin) expressed in HEK293 cells. The class given is cell-based.
Chain of Tryptophan 2,3-dioxygenase (P48775 whole entry): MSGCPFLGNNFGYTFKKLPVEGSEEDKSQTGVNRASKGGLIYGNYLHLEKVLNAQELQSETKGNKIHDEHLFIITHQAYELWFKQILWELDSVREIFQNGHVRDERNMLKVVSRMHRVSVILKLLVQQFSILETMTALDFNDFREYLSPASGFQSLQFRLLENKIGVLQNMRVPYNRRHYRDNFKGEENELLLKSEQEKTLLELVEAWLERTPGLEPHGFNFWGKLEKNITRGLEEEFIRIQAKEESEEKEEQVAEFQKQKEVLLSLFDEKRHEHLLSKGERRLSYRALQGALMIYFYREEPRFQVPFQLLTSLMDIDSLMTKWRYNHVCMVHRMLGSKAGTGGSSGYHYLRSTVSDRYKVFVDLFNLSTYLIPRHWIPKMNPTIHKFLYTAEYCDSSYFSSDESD
In assay [3] the test system is HepG2. Put plainly: Cytotoxicity against human HepG2 cells assessed as reduction in cell growth by MTT based colorimetric assay. The class given is functional. (In general: Tetrazolium dyes change colour on reduction, which living cells bring about.)
In a further assay the test system is A-375. Put plainly: Cytotoxicity against human A-375 cells assessed as reduction in cell growth by MTT based colorimetric assay. Format: functional.
The subject of assay [4] is A549. Put plainly: Cytotoxicity against human A549 cells assessed as reduction in cell viability incubated for 24 hrs by MTT based colorimetric assay. The note with it: A549, 24 h. Format: functional.
In assay [5] the test system is HCT-116. Put plainly: Cytotoxicity against human HCT-116 cells assessed as reduction in cell growth by MTT based colorimetric assay. The class given is functional.
The test system of assay [6] is A549. As to the kind of experiment: Antiproliferative activity against human A549 cells assessed as reduction in cell viability incubated for 48 hrs by MTT assay. Format: functional, cell-based. The note with it: A549, 48 h.
The subject of assay [7] is A549. As to the kind of experiment: Antiproliferative activity against human A549 cells assessed as cell growth inhibition. Format: functional, cell-based.
The test system of assay [8] is HepG2. Put plainly: Antiproliferative activity against human HepG2 cells assessed as reduction in cell viability incubated for 72 hrs by CCK-8 assay. Format: functional, cell-based. Particulars: HepG2, 72 h.
The subject of a further assay is SK-MEL-28. Put plainly: Cytotoxicity against human SK-MEL-28 cells assessed as inhibition of cell growth incubated for 72 hrs by MTT assay. Format: functional, cell-based. The note with it: SK-MEL-28, 72 h.
Assay [9] has as its system MCF7. As to the kind of experiment: Antiproliferative activity against human MCF7 cells assessed as reduction in cell viability incubated for 48 hrs by MTT assay. The class given is functional, cell-based. Particulars: MCF7, 48 h.
Assay [10] can be described thus: Antiproliferative activity against human U373 cells assessed as inhibition of cell growth measured after 72 hrs by CTG assay. Format: functional, cell-based. Particulars: U373 MG.
Another assay relates to SF-268. As to the kind of experiment: Cytotoxicity against human SF-268 cells assessed as reduction in cell viability by MTS assay. The class given is functional, cell-based.
In assay [11] the test system is MCF7. As to the kind of experiment: Cytotoxicity against human MCF7 cells assessed as reduction in cell viability by MTS assay. Format: functional, cell-based.
Another assay deals with NCI-H460. Put plainly: Cytotoxicity against human NCI-H460 cells assessed as reduction in cell viability by MTS assay. Format: functional, cell-based.
Another assay deals with P388. Put plainly: Cytotoxicity against mouse P388 cells assessed as reduction in cell growth. The note with it: read-out: ED50 (the source's name). The class given is functional.
In assay [12] the test system is HCT-116. As to the kind of experiment: Antiproliferative activity against human HCT-116 cells assessed as reduction in cell growth incubated for 24 hrs by MTT assay. The class given is functional, cell-based. Particulars: HCT-116, 24 h.
The subject of assay [13] is MCF7. Put plainly: Cytotoxicity against human MCF7 cells assessed as reduction in cell viability measured after 48 hrs by MTT assay. The class given is functional, cell-based. The note with it: MCF7, 48 h.

Chain of Indoleamine 2,3-dioxygenase 1 (P14902 whole entry): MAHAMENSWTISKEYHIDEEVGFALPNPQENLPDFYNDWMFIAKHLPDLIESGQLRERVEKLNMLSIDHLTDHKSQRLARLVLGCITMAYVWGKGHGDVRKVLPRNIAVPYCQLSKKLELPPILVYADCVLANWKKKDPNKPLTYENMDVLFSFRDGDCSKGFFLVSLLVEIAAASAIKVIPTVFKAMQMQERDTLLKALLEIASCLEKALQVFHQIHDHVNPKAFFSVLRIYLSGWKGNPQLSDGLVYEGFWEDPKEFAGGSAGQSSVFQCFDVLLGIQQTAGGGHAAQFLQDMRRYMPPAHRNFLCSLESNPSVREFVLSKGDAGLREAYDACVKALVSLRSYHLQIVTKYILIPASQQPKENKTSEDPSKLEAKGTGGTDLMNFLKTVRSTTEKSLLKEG

By IC50 is commonly meant the concentration that inhibits the measured activity by half. As to `CN1CCN(CCc2ccc3nc4n(c(=O)c3c2)C2C=CC(F)=CC2C4=O)CC1` (stereo not given), the results for the IC50 in assay [1] and in assay [2] were 0.02 µM and 0.09 µM, respectively.

Take `CC(C)C[C@H]1NC(=O)[C@@H](C[C@]2(O)c3ccccc3N3C(=O)[C@@H](C)N[C@H]32)n2c1nc1ccccc1c2=O`: the IC50 in the assay with HepG2 [3] was 76 µM; with A-375, 160 µM; in the assay with A549 [4], 0.54 µM; in the assay on HCT-116 [5] it was 203 µM.

As to `C[C@H]1C(=O)N2c3ccccc3[C@@]3(C[C@@H](n4cnc5ccccc5c4=O)C(=O)O3)[C@@H]2N1O`, the IC50 is 0.54 µM in the assay on A549 [6]; over 100 µM in the assay with A549 [7]; 235 µM in the assay with HepG2 [8]; over 100 µM with SK-MEL-28; over 100 µM in the assay with MCF7 [9]; over 100 µM in assay [10].

Take `O=C1c2nc3ccc(CCN4CCOCC4)cc3c(=O)n2C2C=CC(F)=CC12` (stereo not given): the IC50 in [1] was 0.02 µM; in [2], 0.07 µM.

Consider `CC1(C)C(=O)N2c3ccccc3[C@@]3(C[C@@H](n4cnc5ccccc5c4=O)C(=O)O3)[C@@H]2N1O`, for which the IC50 with A549 [7] is over 100 µM; with HepG2 [8] it was 235 µM; with SK-MEL-28, over 100 µM; in the assay with MCF7 [9] it was over 100 µM; in assay [10], over 100 µM.

Take `O=C1O[C@]2(C[C@H]1n1cnc3ccccc3c1=O)C(=O)Nc1ccccc12`: the IC50 is over 100 µM in the assay with A549 [7]; 235 µM with HepG2 [8]; over 100 µM in the assay with SK-MEL-28; over 100 µM in the assay on MCF7 [9]; over 100 µM in [10].

In turn, `CCOC(=O)/C=C/c1ccc2nc3n(c(=O)c2c1)C1C=CC(F)=CC1C3=O` (stereo not given) had an IC50 in assay [1] of 0.02 µM.

For the compound `O=C1OCC23Nc4ccccc4C(=O)N2c2ccccc2C13` (stereo not given), the IC50 with SF-268, with MCF7 [11] and in the assay on NCI-H460 was over 50 µM each time.

As for `O=C1/C(=c2\c3ccccc3n3c(=O)c4ccccc4nc23)Nc2ccccc21` [CANDIDINE], the IC50 in the assay on SF-268, with MCF7 [11] and in the assay on NCI-H460 was over 50 µM each time.

`C[C@@H]1N[C@H]2N(C1=O)c1ccccc1[C@@]2(O)C[C@@H]1C(=O)N[C@@H](C)c2nc3ccccc3c(=O)n21` [FUMIQUINAZOLINE A]: in the assay with P388, the EC50 was determined as 6.1 µg/mL (≈ 13.7 µM).

Regarding `C[C@@H]1NC(=O)[C@@H](Cc2c[nH]c3ccccc23)n2c1nc1ccccc1c2=O` [FUMIQUINAZOLINE F], the EC50 in the assay on P388 was determined as 14.6 µg/mL (≈ 40.7 µM).

Turning to `C[C@H]1NC(=O)[C@@H](Cc2c[nH]c3ccccc23)n2c1nc1ccccc1c2=O` [FUMIQUINAZOLINE G], the EC50 in the assay with P388 was 17.7 µg/mL (≈ 49.4 µM).

As to `C[C@@H]1N[C@@H]2N(C1=O)c1ccccc1[C@@]21C[C@@H](n2cnc3ccccc3c2=O)C(=O)O1` [FUMITREMORGIN F], the IC50 was over 100 µM in the assay with A549 [7]; 235 µM with HepG2 [8]; over 100 µM with SK-MEL-28; over 100 µM with MCF7 [9]; 90 µM in assay [10]; 202 µM with HCT-116 [12].

Consider `O=C1c2c(O)cccc2-n2c1nc1ccccc1c2=O` [PHAITANTHRIN C], for which the IC50 in the assay on SF-268, in the assay with MCF7 [11] and with NCI-H460 was over 50 µM throughout.

Take `COC(=O)c1c2ccccc2n2c(=O)c3ccccc3[nH]c12` [PHAITANTHRIN E]: the IC50 in the assay with SF-268, in the assay on MCF7 [11] and in the assay on NCI-H460 was over 50 µM each time.

Turning to `COC(=O)CC1(O)c2ccccc2-n2c1nc1ccccc1c2=O` (stereo not given) [PHAITANTHRINS B], the IC50 with SF-268, in the assay with MCF7 [11] and in the assay with NCI-H460 was over 50 µM throughout.

`CC(=O)O[C@H](c1nc2ccccc2c(=O)n1[C@@H]1C[C@]2(OC1=O)c1ccccc1N1C(=O)C(C)(C)N(O)[C@H]12)C(C)C` [TRYPTOQUIVALINE]: in the assay on MCF7 [13], the IC50 was 72 µM.
